From ChEMBL document CHEMBL6182877, “Design, synthesis, and activity evaluation of novel STING inhibitors based on C170 and H151” (Eur J Med Chem, 2025)
Active and inactive are the calls of the source. No cut-off for these calls is given here.

Tests used:
RAW264.7 [1] = experiment: Cytotoxicity against mouse RAW264.7 cells assessed as cell viability by MTT assay
[2] = Cytotoxicity against HEK293T cells assessed as cell viability by MTT assay; type: toxicity, cell-based, HEK-293T; conditions: human
Mus musculus [3] = experiment: Anti-inflammatory activity against MSA-2 induced C57BL/6 mouse model assessed as reduction in IFN-beta level in plasma at 30 mg/kg, ip pretreated with compound for 1 hr followed by MSA-2 induction and measured after 4 hr; type: functional, organism-based; conditions: time 5.0 hrs
[4] = molecular target: T1, Serine/threonine-protein kinase TBK1 (Homo sapiens) (UniProt Q9UHD2); experiment: Inhibition of TBK1 phosphorylation in SR717-induced human THP-1 cells at 0.2 to 5 uM pretreated with compound for 1 hr followed by SR717 induction and measured after 4 hrs by Western blot analysis; type: cell-based; conditions: dose 0.2-5 µM, time 5.0 hrs
T1 sequence (whole entry): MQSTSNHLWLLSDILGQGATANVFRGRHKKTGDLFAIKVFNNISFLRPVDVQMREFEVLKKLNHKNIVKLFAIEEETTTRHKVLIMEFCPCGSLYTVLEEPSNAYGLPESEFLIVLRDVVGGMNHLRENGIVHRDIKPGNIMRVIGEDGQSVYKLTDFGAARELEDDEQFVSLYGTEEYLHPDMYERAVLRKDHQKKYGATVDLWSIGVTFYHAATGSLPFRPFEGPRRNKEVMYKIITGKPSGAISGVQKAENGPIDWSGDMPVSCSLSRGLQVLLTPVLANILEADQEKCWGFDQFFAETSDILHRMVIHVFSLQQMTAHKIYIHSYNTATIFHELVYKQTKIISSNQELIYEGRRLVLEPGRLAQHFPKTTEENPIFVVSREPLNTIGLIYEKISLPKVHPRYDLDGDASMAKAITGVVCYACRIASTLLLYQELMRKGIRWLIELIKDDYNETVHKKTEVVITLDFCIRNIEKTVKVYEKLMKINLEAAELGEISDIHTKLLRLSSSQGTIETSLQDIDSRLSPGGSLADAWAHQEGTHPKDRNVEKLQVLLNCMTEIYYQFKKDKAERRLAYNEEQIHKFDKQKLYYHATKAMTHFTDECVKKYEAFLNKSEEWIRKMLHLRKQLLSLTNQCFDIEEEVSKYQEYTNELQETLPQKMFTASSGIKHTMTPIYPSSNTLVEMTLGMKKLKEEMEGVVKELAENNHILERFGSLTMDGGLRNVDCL

[5] = molecular target: T2, Stimulator of interferon genes protein (Mus musculus) (UniProt Q3TBT3); experiment: Binding affinity to STING in mouse RAW264.7 cells assessed as increase in thermal stability at 30 uM 40 to 61 degreeC incubated for 8 hrs by CETSA analysis; type: cell-based
T2 sequence (whole entry): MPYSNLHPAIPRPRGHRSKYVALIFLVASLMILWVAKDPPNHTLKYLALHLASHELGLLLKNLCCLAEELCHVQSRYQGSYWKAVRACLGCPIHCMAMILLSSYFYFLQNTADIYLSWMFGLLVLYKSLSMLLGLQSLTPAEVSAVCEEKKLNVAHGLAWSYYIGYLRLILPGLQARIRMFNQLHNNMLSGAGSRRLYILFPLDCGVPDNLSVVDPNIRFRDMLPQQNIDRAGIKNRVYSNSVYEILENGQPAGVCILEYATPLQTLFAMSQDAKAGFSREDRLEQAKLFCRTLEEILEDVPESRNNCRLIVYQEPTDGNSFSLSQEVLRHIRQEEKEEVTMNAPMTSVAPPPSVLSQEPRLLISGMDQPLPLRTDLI

Mus musculus [6] = experiment: Renoprotective activity in cisplatin-induced acute kidney injury C57BL/6J mouse model assessed as reduction in […] level at 10 mg/kg, ip; type: functional, organism-based
THP-1 = experiment: Cytotoxicity against human THP-1 cells assessed as cell viability by MTT assay
[7] = Toxicity in male C57BL/6J mouse assessed as kidney damage at 10 mg/kg, ip by H and E staining based analysis; type: organism-based; conditions: in vivo
Mus musculus [8] = experiment: Renoprotective activity in cisplatin-induced acute kidney injury C57BL/6J mouse model assessed as reduction in BUN level at 10 mg/kg, ip; type: functional, organism-based
[9] = Toxicity in male C57BL/6J mouse assessed as body weight loss at 10 mg/kg, ip; type: organism-based; conditions: in vivo
Mus musculus [10] = experiment: Anti-inflammatory activity against MSA-2 induced C57BL/6 mouse model assessed as reduction in IL-6 level in plasma at 30 mg/kg, ip pretreated with compound for 1 hr followed by MSA-2 induction and measured after 4 hr; type: functional, organism-based; conditions: time 5.0 hrs
[11] = Cytotoxicity against HUVEC cells assessed as cell viability by MTT assay; type: toxicity, cell-based; conditions: human
[12] = molecular target: T3, Interferon regulatory factor 3 (Homo sapiens) (UniProt Q14653); experiment: Inhibition of IRF3 phosphorylation in SR717-induced human THP-1 cells at 0.2 to 5 uM pretreated with compound for 1 hr followed by SR717 induction and measured after 4 hrs by Western blot analysis; type: cell-based; conditions: dose 0.2-5 µM, time 5.0 hrs
T3 sequence (whole entry): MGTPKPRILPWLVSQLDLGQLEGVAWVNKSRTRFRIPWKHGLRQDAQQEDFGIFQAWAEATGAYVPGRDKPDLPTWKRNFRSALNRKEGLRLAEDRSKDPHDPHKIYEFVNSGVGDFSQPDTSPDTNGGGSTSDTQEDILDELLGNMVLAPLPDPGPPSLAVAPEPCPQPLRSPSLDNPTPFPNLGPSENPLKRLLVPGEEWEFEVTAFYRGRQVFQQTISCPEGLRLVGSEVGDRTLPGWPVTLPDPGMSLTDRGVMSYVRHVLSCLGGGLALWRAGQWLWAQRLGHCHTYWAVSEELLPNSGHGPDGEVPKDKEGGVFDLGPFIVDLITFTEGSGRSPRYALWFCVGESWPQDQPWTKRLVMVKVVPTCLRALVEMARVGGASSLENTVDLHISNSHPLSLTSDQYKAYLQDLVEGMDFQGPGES

Mus musculus [13] = experiment: Anti-inflammatory activity against MSA-2 induced C57BL/6 mouse model assessed as reduction in splenic index at 30 mg/kg, ip pretreated with compound for 1 hr followed by MSA-2 induction and measured after 4 hrs; type: functional, organism-based; conditions: time 5.0 hrs
Mus musculus [14] = experiment: Anti-inflammatory activity against MSA-2 induced C57BL/6 mouse model assessed as downregulation of TBK1 expression in spleen at 30 mg/kg, ip pretreated with compound for 1 hr followed by MSA-2 induction and measured after 4 hrs; type: functional, organism-based; conditions: time 5.0 hrs
RAW264.7 [15] = experiment: Antiinflammatory activity in mouse RAW264.7 cells assessed as inhibition of LPS-induced NO release at 0.2 to 5 uM pretreated with compound for 1 hr; type: functional, cell-based; conditions: dose 0.2-5 µM
[16] = molecular target: Stimulator of interferon genes protein (Homo sapiens) (UniProt Q86WV6); experiment: Inhibition of STING activation in human THP-1 cells assessed as reduction in SR717-induced CXCL10 mRNA expression at 0.03 to 0.3 uM pretreated with compound for 1 hr followed by SR717 induction and measured after 4 hrs by qPCR analysis; type: cell-based; conditions: dose 0.03-0.3 µM, time 5.0 hrs
Chain of Stimulator of interferon genes protein (Homo sapiens) (Q86WV6 whole entry): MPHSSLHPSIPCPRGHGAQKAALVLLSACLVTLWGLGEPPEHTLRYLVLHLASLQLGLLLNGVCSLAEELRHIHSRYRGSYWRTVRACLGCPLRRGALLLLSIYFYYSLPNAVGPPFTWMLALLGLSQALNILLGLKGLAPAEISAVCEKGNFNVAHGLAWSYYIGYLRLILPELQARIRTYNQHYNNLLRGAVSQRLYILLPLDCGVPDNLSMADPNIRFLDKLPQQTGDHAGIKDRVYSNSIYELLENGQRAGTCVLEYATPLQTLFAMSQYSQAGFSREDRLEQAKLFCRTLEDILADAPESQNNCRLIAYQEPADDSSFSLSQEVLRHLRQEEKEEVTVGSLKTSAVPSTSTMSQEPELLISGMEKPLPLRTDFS

Mus musculus [17] = experiment: Protection against cisplatin-induced C57BL/6J mouse assessed as effect on inflammatory cell infiltration in spleen at 10 to 20 mg/kg, ip pretreated with compound for 1 hr followed by cisplatin induction and measured after 4 hrs by H and E staining based analysis; type: functional, organism-based; conditions: dose 10-20 mg/kg, time 5.0 hrs
Mus musculus [18] = experiment: Anti-inflammatory activity in cisplatin-induced acute kidney injury C57BL/6J mouse model assessed as reduction in kidney index at 10 to 20 mg/kg, ip; type: functional, organism-based; conditions: dose 10-20 mg/kg
Mus musculus [19] = experiment: Protection against cisplatin-induced C57BL/6J mouse assessed as reduction in tubular epithelial edema in kidney at 10 to 20 mg/kg, ip pretreated with compound for 1 hr followed by cisplatin induction and measured after 4 hrs by H and E staining based analysis; type: functional, organism-based; conditions: dose 10-20 mg/kg, time 5.0 hrs
Mus musculus [20] = experiment: Anti-inflammatory activity in cisplatin-induced acute kidney injury C57BL/6J mouse model assessed as reduction in ALT level in plasma at 10 to 20 mg/kg, ip; type: functional, organism-based; conditions: dose 10-20 mg/kg
Mus musculus [21] = experiment: Protection against cisplatin-induced C57BL/6J mouse assessed as reduction in tubular obstruction in kidney at 10 to 20 mg/kg, ip pretreated with compound for 1 hr followed by cisplatin induction and measured after 4 hrs by H and E staining based analysis; type: functional, organism-based; conditions: dose 10-20 mg/kg, time 5.0 hrs
Mus musculus [22] = experiment: Protection against cisplatin-induced C57BL/6J mouse assessed as reduction in tubular structure disintegration in kidney at 10 to 20 mg/kg, ip pretreated with compound for 1 hr followed by cisplatin induction and measured after 4 hrs by H and E staining based analysis; type: functional, organism-based; conditions: dose 10-20 mg/kg, time 5.0 hrs
Mus musculus [23] = experiment: Renoprotective activity in cisplatin-induced acute kidney injury C57BL/6J mouse model assessed as reduction in […] level at 10 to 20 mg/kg, ip; type: functional, organism-based; conditions: dose 10-20 mg/kg
Mus musculus [24] = experiment: Protection against cisplatin-induced C57BL/6J mouse assessed as reduction in inflammatory cell exudation in kidney at 10 to 20 mg/kg, ip pretreated with compound for 1 hr followed by cisplatin induction and measured after 4 hrs by H and E staining based analysis; type: functional, organism-based; conditions: dose 10-20 mg/kg, time 5.0 hrs
[25] = molecular target: T2, Stimulator of interferon genes protein (Mus musculus); experiment: Binding affinity to STING in mouse RAW264.7 cells assessed as increase in thermal stability at 30 uM 47 to 62 degreeC incubated for 8 hrs by CETSA analysis; type: cell-based
[26] = molecular target: Stimulator of interferon genes protein (Homo sapiens) (UniProt Q86WV6); experiment: Inhibition of STING activation in human THP-1 cells assessed as reduction in SR717-induced IFNbeta mRNA expression at 0.03 to 0.3 uM pretreated with compound for 1 hr followed by SR717 induction and measured after 4 hrs by qPCR analysis; type: cell-based; conditions: dose 0.03-0.3 µM, time 5.0 hrs
Mus musculus [27] = experiment: Anti-inflammatory activity in cisplatin-induced acute kidney injury C57BL/6J mouse model assessed as reduction in AST level in plasma at 10 to 20 mg/kg, ip; type: functional, organism-based; conditions: dose 10-20 mg/kg
Mus musculus [28] = experiment: Protection against cisplatin-induced C57BL/6J mouse assessed as reduction in vacuole-like changes in kidney at 10 to 20 mg/kg, ip pretreated with compound for 1 hr followed by cisplatin induction and measured after 4 hrs by H and E staining based analysis; type: functional, organism-based; conditions: dose 10-20 mg/kg, time 5.0 hrs
Mus musculus [29] = experiment: Protection against cisplatin-induced C57BL/6J mouse assessed as effect on enlargement of splenic corpuscle in spleen at 10 to 20 mg/kg, ip pretreated with compound for 1 hr followed by cisplatin induction and measured after 4 hrs by H and E staining based analysis; type: functional, organism-based; conditions: dose 10-20 mg/kg, time 5.0 hrs
Mus musculus [30] = experiment: Protection against cisplatin-induced C57BL/6J mouse assessed as effect on fibrotic tissue proliferation in spleen at 10 to 20 mg/kg, ip pretreated with compound for 1 hr followed by cisplatin induction and measured after 4 hrs by H and E staining based analysis; type: functional, organism-based; conditions: dose 10-20 mg/kg, time 5.0 hrs

| Compound | IC50 (RAW264.7 [1]) | IC50 [2] | Activity (Mus musculus [3]) | Activity (Mus musculus [6]) | IC50 (THP-1) | Activity [7] | Activity (Mus musculus [8]) | Activity [9] | Activity (Mus musculus [10]) | IC50 [11] | Activity (Mus musculus [13]) | Activity (Mus musculus [14]) | further results |
| --- | --- | --- | --- | --- | --- | --- | --- | --- | --- | --- | --- | --- | --- |
| O=C(/C=C/C=C/c1ccccc1)OCc1ccc(NC(=O)c2ccc([N+](=O)[O-])o2)cc1 | 0.53 µM | 7.43 µM | – | – | – | – | – | – | – | – | – | – | – |
| O=C(Nc1ccc(OCCCC(F)(F)F)cc1)c1ccc([N+](=O)[O-])o1 | 5.21 µM | 11.3 µM | Active | Active | 16.8 µM | Non-toxic | Active | Non-toxic | Active | 10.4 µM | Active | Active | inhibition [4]: Active; Activity [5]: Active; inhibition [12]: Active; Activity (RAW264.7 [15]): inactive |
| O=C(/C=C/C=C/c1ccccc1)OCCc1ccc(NC(=O)c2ccc([N+](=O)[O-])o2)cc1 | 2.62 µM | 6.34 µM | – | – | 4.6 µM | – | – | – | – | 7.89 µM | – | – | – |
| O=C(Nc1ccc(OCCCC(F)(F)F)cc1)Nc1c[nH]c2ccccc12 | – | – | – | – | – | – | – | – | – | – | – | – | inhibition [16]: Active; Activity (Mus musculus [17]): Active; Activity (Mus musculus [18]): Active; Activity (Mus musculus [19]): Active; Activity (Mus musculus [20]): Active; Activity (Mus musculus [21]): Active; Activity (Mus musculus [22]): Active; Activity (Mus musculus [23]): Active; Activity (Mus musculus [24]): Active; Activity [25]: Active; inhibition [26]: Active; Activity (Mus musculus [27]): Active; Activity (Mus musculus [28]): Active; Activity (Mus musculus [29]): Active; Activity (Mus musculus [30]): Active |
| CCCCc1ccc(NC(=O)c2ccc([N+](=O)[O-])o2)cc1 | 0.89 µM | 2.81 µM | Active | Active | 8.07 µM | Non-toxic | Active | Non-toxic | Active | 4.77 µM | Active | Active | – |
| C/C=C/C=C/C(=O)OCc1ccc(NC(=O)c2ccc([N+](=O)[O-])o2)cc1 | 0.49 µM | 8.57 µM | – | – | – | – | – | – | – | – | – | – | – |
